Drawing on PubChem BioAssay (NCI), this text covers TGI and GI50 for 13 compounds.

Among the test systems are SF-295 CNS; A498 renal; ACHN renal; MCF7 breast; COLO 205 colon; PC-3 prostate; K-562 leukemia; UACC-257 melanoma; RPMI-8226 leukemia; HCT-15 colon.
Common to all, as to experiment: DTP human tumour cell line panel, 48 h

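Interpolation was linear, between the two tested concentrations surrounding the appropriate level; five concentrations were tested over 48 hours in 96-well plates. GI50: concentration for 50% inhibition of growth. At the TGI there is no net growth.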

One may read the TGI as the concentration at which net growth stops. High values mean less potent growth arrest, low ones more potent growth arrest. Regarding `O=C1CCN2c3ccccc3[C@H]3Cc4cccc(c4[C@@H]2C3)CCO1`, the TGI in the experiment on SF-295 CNS, in the experiment with A498 renal, in the experiment with ACHN renal, in the experiment on MCF7 breast, in the experiment on COLO 205 colon and in the experiment with PC-3 prostate was > 100 µM each time. Also, the TGI is 80.7 µM with K-562 leukemia, > 100 µM in the experiment on UACC-257 melanoma, > 100 µM in the experiment on RPMI-8226 leukemia and > 100 µM in the experiment on HCT-15 colon.
In the case of `CCS(=O)C(=O)N(O)c1ccc(Cl)cc1` (centres undefined), the TGI in the experiment on SF-295 CNS was > 100 µM; in the experiment with A498 renal it was > 100 µM; in the experiment with ACHN renal it was 55 µM; in the experiment with MCF7 breast, 50.9 µM; with COLO 205 colon, > 100 µM; in the experiment on PC-3 prostate, > 100 µM. The TGI in the experiment on K-562 leukemia was determined as 39.9 µM; in the experiment on UACC-257 melanoma, 75.8 µM; in the experiment with RPMI-8226 leukemia, 20.4 µM; in the experiment on HCT-15 colon, 68.5 µM.
Consider `CCN(CC)CCCNc1c2c(Cl)cc(Cl)cc2nc2nc(=O)[nH]c(C)c12`, for which the TGI was > 100 µM in the experiment with SF-295 CNS; > 100 µM in the experiment with A498 renal; > 100 µM in the experiment with ACHN renal; 53.9 µM in the experiment on MCF7 breast; > 100 µM in the experiment with COLO 205 colon; > 100 µM in the experiment on PC-3 prostate. Further, the TGI with K-562 leukemia is > 100 µM; in the experiment on UACC-257 melanoma it was > 100 µM; in the experiment with RPMI-8226 leukemia it was > 10 µM; with HCT-15 colon, > 100 µM.
Turning to `CC1(C)C2CCC3CC(CCC#N)CCC3C21C#N` (centres undefined), the TGI with SF-295 CNS, with A498 renal, in the experiment with ACHN renal, in the experiment with MCF7 breast, in the experiment with COLO 205 colon and in the experiment on PC-3 prostate was > 100 µM in each case. Also, the TGI in the experiment with K-562 leukemia, in the experiment with UACC-257 melanoma, in the experiment on RPMI-8226 leukemia and in the experiment with HCT-15 colon was > 100 µM in each case.
As to `COc1ccc(Nc2nc3ccccc3n3cccc23)cc1OC`, the TGI was 35.4 µM in the experiment on SF-295 CNS; 55.8 µM with A498 renal; 69.7 µM in the experiment on ACHN renal; 29.6 µM in the experiment with MCF7 breast; 27.4 µM in the experiment with COLO 205 colon; 23.9 µM with PC-3 prostate. Moreover, the concentration for total growth inhibition (TGI) with K-562 leukemia is > 100 µM; in the experiment with UACC-257 melanoma, 29.4 µM; in the experiment with RPMI-8226 leukemia, 54.3 µM; with HCT-15 colon it was 31.6 µM.
Take `Clc1ccc(Nc2nnc(CNc3ccc(-c4nnc(Nc5ccc(Cl)cc5)s4)cc3)s2)cc1`: the TGI was 84.3 µM with SF-295 CNS; > 100 µM with A498 renal; > 100 µM with ACHN renal; > 100 µM with MCF7 breast; 45.3 µM in the experiment on COLO 205 colon; > 100 µM in the experiment with PC-3 prostate. In addition, the TGI with K-562 leukemia, with UACC-257 melanoma, in the experiment on RPMI-8226 leukemia and in the experiment on HCT-15 colon was > 100 µM in each case.
Take `CN(C)c1ccc(/C=C/C(=O)c2ccc(O)cc2)cc1`: the TGI in the experiment with SF-295 CNS was > 41.6 µM; in the experiment on A498 renal, > 65.7 µM; with ACHN renal it was 61.3 µM; in the experiment on MCF7 breast, > 100 µM; in the experiment on COLO 205 colon, 26.6 µM; in the experiment on PC-3 prostate it was 63.2 µM. For the same compound, the TGI with K-562 leukemia is 8.38 µM; with UACC-257 melanoma it was > 92.4 µM; in the experiment on RPMI-8226 leukemia, 22 µM; in the experiment with HCT-15 colon, 40.4 µM.
Regarding `COc1ccc(C2c3cc4c(cc3OC(NNc3ccccc3)C2C)OCO4)cc1` (centres undefined), the TGI was > 100 µM in the experiment on SF-295 CNS; 76.9 µM in the experiment with A498 renal; 49.5 µM in the experiment on ACHN renal; 44.7 µM with MCF7 breast; 20.5 µM with COLO 205 colon; > 100 µM with PC-3 prostate. Moreover, the TGI is > 100 µM in the experiment with K-562 leukemia, 86.3 µM in the experiment with UACC-257 melanoma, > 100 µM in the experiment with RPMI-8226 leukemia and > 100 µM in the experiment on HCT-15 colon.
With `CC1(C)CCN2C(=O)C34CCCC3CC21S4` (centres undefined), the TGI with SF-295 CNS, with A498 renal, in the experiment on ACHN renal, in the experiment on MCF7 breast, with COLO 205 colon and in the experiment on PC-3 prostate was > 100 µM each time. The TGI in the experiment with K-562 leukemia, in the experiment with UACC-257 melanoma, in the experiment on RPMI-8226 leukemia and with HCT-15 colon was > 100 µM in each case.
Consider `Clc1ccc(Cl)c(N=Nc2cc3c4c(c2)CCN4CCC3)c1`, for which the TGI in the experiment with SF-295 CNS, in the experiment on A498 renal, with ACHN renal, in the experiment with MCF7 breast, in the experiment on COLO 205 colon and in the experiment on PC-3 prostate was > 10 µM in each case. Moreover, the TGI in the experiment with K-562 leukemia, in the experiment with UACC-257 melanoma, in the experiment on RPMI-8226 leukemia and in the experiment with HCT-15 colon was > 10 µM in each case.
A word on the GI50: it is the concentration at which growth is held to half of that of the control. `COC1(CC[C@@H](C)COC2OC(CO)C(O)C(O)C2O)O[C@H]2C[C@H]3[C@@H]4CC=C5C[C@@H](OC6OC(CO)C(OC7OC(C)C(O)C(O)C7O)C(O)C6OC6OC(C)C(O)C(O)C6O)CC[C@]5(C)[C@H]4CC[C@]3(C)[C@H]2[C@@H]1C` (some centres undefined): the GI50 is 2.02 µM with SF-295 CNS; 3.86 µM in the experiment with A498 renal; 6.24 µM in the experiment on ACHN renal; 3.74 µM in the experiment on MCF7 breast; 2.99 µM with COLO 205 colon; 5.12 µM in the experiment with K-562 leukemia. Further, the GI50 in the experiment with UACC-257 melanoma is 2.56 µM; in the experiment with RPMI-8226 leukemia, 3.83 µM; with HCT-15 colon, 1.72 µM. Further, the TGI in the experiment with SF-295 CNS turned out to be 5.22 µM; in the experiment with A498 renal it was 9.76 µM; with ACHN renal it was 13.9 µM; in the experiment with MCF7 breast, 12.9 µM; with COLO 205 colon it was 19.2 µM; in the experiment with PC-3 prostate, 9.58 µM. The TGI in the experiment with K-562 leukemia was 16 µM; with UACC-257 melanoma it was 8.38 µM; with RPMI-8226 leukemia it was 13.7 µM; in the experiment on HCT-15 colon it was 3.66 µM.
As to `C[C@@H](CC(O)C(O)C(C)(C)O)C1CCC23CC12CCC1[C@@]2(C)CCC(O)C(C)(C)C2CC(OC2OC(CO)C(O)C(O)C2O)[C@]13C` (some centres undefined), the TGI with SF-295 CNS, in the experiment with A498 renal, in the experiment with ACHN renal, with MCF7 breast, with COLO 205 colon and with PC-3 prostate was > 10 µM each time. For the same compound, the TGI with K-562 leukemia, in the experiment with UACC-257 melanoma, in the experiment on RPMI-8226 leukemia and in the experiment with HCT-15 colon was > 10 µM each time.
Turning to `O=c1[nH]nc(Cc2ccccc2)n1/N=C/c1cccs1`, the TGI is > 100 µM in the experiment on SF-295 CNS; 63 µM in the experiment on A498 renal; > 100 µM with ACHN renal; > 100 µM with MCF7 breast; > 100 µM in the experiment with COLO 205 colon; > 100 µM in the experiment on PC-3 prostate. The TGI with K-562 leukemia, in the experiment on UACC-257 melanoma, in the experiment on RPMI-8226 leukemia and in the experiment with HCT-15 colon was > 100 µM throughout.
